Assay results: the kinase profiling compilation of Christmann-Franck et al. (2016)

Legend:
Experiment in all cases: Caliper, Mobility shift assay off-chip
PAK2 (human) = PAK2 (human) (UniProt Q13177)
RPS6KA1 KD1 KD2 (human) = RPS6KA1 KD1 KD2 (human) (UniProt Q15418)
PRKCQ (human) = PRKCQ (human) (UniProt Q04759)
[1] = test system: PDGFRA (human), P16234 [V561D]
CSNK1D (human) = CSNK1D (human) (UniProt P48730)
PRKD1 (human) = PRKD1 (human) (UniProt Q15139)
[2] = test system: ABL1 (human), P00519 [H396P]
MARK1 (human) = MARK1 (human) (UniProt Q9P0L2)
ROCK2 (human) = ROCK2 (human) (UniProt O75116)
Chain of ROCK2 (human) (O75116 whole entry, looked up): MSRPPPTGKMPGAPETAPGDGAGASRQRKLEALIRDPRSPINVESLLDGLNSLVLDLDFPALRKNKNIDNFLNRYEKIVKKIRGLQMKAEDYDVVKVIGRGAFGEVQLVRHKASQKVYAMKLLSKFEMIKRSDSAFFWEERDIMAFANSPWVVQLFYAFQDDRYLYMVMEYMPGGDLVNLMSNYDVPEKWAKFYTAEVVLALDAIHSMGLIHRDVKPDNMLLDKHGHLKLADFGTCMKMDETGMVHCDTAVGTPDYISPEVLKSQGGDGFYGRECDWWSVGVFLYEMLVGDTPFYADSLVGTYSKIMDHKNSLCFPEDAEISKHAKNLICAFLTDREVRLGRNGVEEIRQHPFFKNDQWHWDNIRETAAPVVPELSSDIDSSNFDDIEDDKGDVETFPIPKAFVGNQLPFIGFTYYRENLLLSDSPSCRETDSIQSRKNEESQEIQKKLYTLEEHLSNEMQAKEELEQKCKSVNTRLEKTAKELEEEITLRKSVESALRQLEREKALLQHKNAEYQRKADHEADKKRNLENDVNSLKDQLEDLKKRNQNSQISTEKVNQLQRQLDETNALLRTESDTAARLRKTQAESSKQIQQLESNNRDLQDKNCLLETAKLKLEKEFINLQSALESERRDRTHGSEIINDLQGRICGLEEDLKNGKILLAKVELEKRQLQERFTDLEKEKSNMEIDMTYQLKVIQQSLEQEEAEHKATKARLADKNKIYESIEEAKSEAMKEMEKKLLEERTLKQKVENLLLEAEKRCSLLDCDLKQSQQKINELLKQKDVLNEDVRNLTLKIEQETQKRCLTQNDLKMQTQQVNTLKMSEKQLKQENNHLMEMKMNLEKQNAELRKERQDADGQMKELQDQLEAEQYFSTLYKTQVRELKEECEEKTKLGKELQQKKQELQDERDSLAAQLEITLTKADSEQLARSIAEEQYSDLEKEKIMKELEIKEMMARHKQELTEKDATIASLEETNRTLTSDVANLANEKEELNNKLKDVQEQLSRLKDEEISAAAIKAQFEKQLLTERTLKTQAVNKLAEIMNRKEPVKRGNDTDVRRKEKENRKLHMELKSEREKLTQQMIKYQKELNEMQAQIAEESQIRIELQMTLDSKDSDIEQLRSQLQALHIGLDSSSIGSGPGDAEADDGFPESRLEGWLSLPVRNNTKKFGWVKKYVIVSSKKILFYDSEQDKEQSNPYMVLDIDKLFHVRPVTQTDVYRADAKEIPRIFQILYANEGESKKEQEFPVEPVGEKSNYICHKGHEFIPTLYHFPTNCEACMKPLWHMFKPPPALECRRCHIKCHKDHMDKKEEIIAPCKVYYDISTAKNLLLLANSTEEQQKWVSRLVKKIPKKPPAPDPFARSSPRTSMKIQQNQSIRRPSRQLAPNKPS

SYK (human) = SYK (human) (UniProt P43405)
NTRK3 (human) = NTRK3 (human) (UniProt Q16288)
DYRK1A (human) = DYRK1A (human) (UniProt Q13627)
MAP4K4 (human) = MAP4K4 (human) (UniProt O95819)
LCK (human) = LCK (human) (UniProt P06239)
CSNK1A1 (human) = CSNK1A1 (human) (UniProt P48729)
PRKCI (human) = PRKCI (human) (UniProt P41743)
[3] = test system: RET (human), P07949 [Y791F]
AKT2 (human) = AKT2 (human) (UniProt P31751)
CAMK2B (human) = CAMK2B (human) (UniProt Q13554)
MAPK1 (human) = MAPK1 (human) (UniProt P28482)
BMX (human) = BMX (human) (UniProt P51813)
CSNK1G3 (human) = CSNK1G3 (human) (UniProt Q9Y6M4)
NEK2 (human) = NEK2 (human) (UniProt P51955)
Chain of NEK2 (human) (P51955 whole entry, looked up): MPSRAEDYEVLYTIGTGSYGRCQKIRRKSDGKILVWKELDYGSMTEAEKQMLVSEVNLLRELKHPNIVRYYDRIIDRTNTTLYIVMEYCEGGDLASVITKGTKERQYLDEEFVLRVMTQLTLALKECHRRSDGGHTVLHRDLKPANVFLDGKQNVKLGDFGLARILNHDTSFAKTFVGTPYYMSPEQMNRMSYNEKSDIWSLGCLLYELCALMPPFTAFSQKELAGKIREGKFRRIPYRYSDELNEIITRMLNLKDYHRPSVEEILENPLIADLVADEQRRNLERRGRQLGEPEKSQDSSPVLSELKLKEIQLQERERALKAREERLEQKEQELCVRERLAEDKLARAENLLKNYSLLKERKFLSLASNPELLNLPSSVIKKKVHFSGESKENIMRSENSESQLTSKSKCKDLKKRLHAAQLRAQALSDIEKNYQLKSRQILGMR

ABL1 (human) = ABL1 (human) (UniProt P00519)
IRAK4 (human) = IRAK4 (human) (UniProt Q9NWZ3)
FLT3 (human) = FLT3 (human) (UniProt P36888)
CHEK2 (human) = CHEK2 (human) (UniProt O96017)
PASK (human) = PASK (human) (UniProt Q96RG2)
DYRK4 (human) = DYRK4 (human) (UniProt Q9NR20)
PRKCD (human) = PRKCD (human) (UniProt Q05655)
Chain of PRKCD (human) (Q05655 whole entry, looked up): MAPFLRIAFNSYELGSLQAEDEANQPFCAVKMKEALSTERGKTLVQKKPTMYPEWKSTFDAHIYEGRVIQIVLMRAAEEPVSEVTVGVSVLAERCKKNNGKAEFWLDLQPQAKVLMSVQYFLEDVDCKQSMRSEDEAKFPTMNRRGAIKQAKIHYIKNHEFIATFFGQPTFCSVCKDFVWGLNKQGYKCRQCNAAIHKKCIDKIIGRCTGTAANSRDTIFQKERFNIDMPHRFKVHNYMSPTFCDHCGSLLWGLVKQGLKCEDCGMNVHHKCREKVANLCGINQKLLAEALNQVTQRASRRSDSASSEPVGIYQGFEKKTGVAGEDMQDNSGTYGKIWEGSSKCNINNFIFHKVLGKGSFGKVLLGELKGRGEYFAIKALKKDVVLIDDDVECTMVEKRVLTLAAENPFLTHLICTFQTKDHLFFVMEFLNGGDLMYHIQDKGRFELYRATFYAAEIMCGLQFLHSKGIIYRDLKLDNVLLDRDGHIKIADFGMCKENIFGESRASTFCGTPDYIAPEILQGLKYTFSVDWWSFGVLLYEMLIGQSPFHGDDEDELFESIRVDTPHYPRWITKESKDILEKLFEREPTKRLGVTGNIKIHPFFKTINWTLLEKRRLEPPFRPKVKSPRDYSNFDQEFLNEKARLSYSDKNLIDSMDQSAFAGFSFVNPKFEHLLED

PHKG1 (human) = PHKG1 (human) (UniProt Q16816)
Chain of PHKG1 (human) (Q16816 whole entry, looked up): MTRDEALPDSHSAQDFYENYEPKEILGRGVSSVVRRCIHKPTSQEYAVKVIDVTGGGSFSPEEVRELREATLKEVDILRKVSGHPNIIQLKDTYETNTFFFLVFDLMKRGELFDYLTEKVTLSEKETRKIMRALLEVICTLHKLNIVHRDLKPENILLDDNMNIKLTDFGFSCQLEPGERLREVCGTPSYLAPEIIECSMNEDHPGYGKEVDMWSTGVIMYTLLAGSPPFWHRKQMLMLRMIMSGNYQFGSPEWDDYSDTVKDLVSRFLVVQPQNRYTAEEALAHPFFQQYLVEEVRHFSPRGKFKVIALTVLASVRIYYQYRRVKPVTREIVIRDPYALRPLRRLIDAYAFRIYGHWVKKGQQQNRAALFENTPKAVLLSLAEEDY

RAF1 (human) = RAF1 (human) (UniProt P04049)
PIM3 (human) = PIM3 (human) (UniProt Q86V86)

Chain of CSNK1D (human) (P48730 whole entry, looked up): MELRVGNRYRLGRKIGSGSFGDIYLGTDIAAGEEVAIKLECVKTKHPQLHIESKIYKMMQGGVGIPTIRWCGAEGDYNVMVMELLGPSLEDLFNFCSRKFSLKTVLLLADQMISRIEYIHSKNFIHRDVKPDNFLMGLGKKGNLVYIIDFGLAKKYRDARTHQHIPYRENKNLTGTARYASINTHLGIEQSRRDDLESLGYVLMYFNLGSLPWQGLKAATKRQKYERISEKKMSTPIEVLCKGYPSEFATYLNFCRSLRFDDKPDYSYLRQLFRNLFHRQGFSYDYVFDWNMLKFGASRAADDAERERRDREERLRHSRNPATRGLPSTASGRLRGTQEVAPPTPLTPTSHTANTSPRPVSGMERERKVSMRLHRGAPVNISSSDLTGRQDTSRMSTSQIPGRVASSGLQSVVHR
Chain of PDGFRA (human), P16234 [V561D] (P16234 whole entry V561D, looked up): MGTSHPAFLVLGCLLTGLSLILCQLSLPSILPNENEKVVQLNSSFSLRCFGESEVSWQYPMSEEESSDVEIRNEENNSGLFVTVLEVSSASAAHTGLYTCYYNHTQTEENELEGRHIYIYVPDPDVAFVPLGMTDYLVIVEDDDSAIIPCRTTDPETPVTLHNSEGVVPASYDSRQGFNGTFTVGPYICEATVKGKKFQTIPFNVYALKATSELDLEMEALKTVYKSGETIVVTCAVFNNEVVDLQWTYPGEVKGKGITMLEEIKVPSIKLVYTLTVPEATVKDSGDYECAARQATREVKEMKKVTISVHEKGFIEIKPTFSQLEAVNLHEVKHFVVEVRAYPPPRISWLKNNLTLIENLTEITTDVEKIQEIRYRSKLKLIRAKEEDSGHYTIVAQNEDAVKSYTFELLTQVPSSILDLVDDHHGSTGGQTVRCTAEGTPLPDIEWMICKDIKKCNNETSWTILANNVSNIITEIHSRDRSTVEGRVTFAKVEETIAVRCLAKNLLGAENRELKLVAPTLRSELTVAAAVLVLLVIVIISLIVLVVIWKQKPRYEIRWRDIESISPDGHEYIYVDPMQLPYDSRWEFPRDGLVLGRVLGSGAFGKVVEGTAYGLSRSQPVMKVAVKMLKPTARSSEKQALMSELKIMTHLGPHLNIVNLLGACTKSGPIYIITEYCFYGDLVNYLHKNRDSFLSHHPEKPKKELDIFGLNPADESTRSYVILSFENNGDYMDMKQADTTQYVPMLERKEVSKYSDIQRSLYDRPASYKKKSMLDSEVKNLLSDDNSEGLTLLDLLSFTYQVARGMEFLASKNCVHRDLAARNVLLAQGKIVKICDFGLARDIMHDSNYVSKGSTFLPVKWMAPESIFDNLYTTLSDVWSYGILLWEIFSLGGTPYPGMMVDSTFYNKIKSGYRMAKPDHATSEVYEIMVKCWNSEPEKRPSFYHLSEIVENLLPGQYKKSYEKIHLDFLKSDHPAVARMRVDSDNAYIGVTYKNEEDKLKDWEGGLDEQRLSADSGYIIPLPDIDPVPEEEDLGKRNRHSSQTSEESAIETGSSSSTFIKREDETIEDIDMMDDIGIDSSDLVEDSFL

CN(c1ccc2ccc3ncc(-c4cnn(C)c4)cc3c(=O)c2c1)S(=O)(=O)NCc1ccccn1
inhibition (PAK2 (human); compound 0.1 µM): 10.2% | inhibition (PAK2 (human); compound 1.0 µM): 5.3% | inhibition (RPS6KA1 KD1 KD2 (human); compound 0.1 µM): -2.7% | inhibition (RPS6KA1 KD1 KD2 (human); compound 1.0 µM): 2.1% | inhibition (PRKCQ (human); compound 0.1 µM): -2.9% | inhibition (PRKCQ (human); compound 1.0 µM): -2% | inhibition ([1]; compound 0.1 µM): 16.9% | inhibition ([1]; compound 1.0 µM): 61.1% | inhibition (CSNK1D (human); compound 0.1 µM): 3.5% | inhibition (CSNK1D (human); compound 1.0 µM): 8.9% | inhibition (PRKD1 (human); compound 0.1 µM): -0.4% | inhibition (PRKD1 (human); compound 1.0 µM): 1.9% | inhibition ([2]; compound 0.1 µM): -1.8% | inhibition ([2]; compound 1.0 µM): 42.1% | inhibition (MARK1 (human); compound 0.1 µM): 6.6% | inhibition (MARK1 (human); compound 1.0 µM): 16.4% | inhibition (ROCK2 (human); compound 0.1 µM): 21.3% | inhibition (ROCK2 (human); compound 1.0 µM): 20.8% | inhibition (SYK (human); compound 0.1 µM): 8.7% | inhibition (SYK (human); compound 1.0 µM): 15.8% | inhibition (NTRK3 (human); compound 0.1 µM): 39.3% | inhibition (NTRK3 (human); compound 1.0 µM): 83.6% | inhibition (DYRK1A (human); compound 0.1 µM): 7.9% | inhibition (DYRK1A (human); compound 1.0 µM): 40.1% | inhibition (MAP4K4 (human); compound 0.1 µM): 18.6% | inhibition (MAP4K4 (human); compound 1.0 µM): 56.3% | inhibition (LCK (human); compound 0.1 µM): -3.5% | inhibition (LCK (human); compound 1.0 µM): 11.3% | inhibition (CSNK1A1 (human); compound 0.1 µM): -7.8% | inhibition (CSNK1A1 (human); compound 1.0 µM): 7.2% | inhibition (PRKCI (human); compound 0.1 µM): 3.9% | inhibition (PRKCI (human); compound 1.0 µM): -0.5% | inhibition ([3]; compound 0.1 µM): 10.2% | inhibition ([3]; compound 1.0 µM): 43.4% | inhibition (AKT2 (human); compound 0.1 µM): -4.1% | inhibition (AKT2 (human); compound 1.0 µM): -15.8% | inhibition (CAMK2B (human); compound 0.1 µM): 5.9% | inhibition (CAMK2B (human); compound 1.0 µM): 12.1% | inhibition (MAPK1 (human); compound 0.1 µM): -4% | inhibition (MAPK1 (human); compound 1.0 µM): 1.8% | inhibition (BMX (human); compound 0.1 µM): 1.8% | inhibition (BMX (human); compound 1.0 µM): 8% | inhibition (CSNK1G3 (human); compound 0.1 µM): 9.7% | inhibition (CSNK1G3 (human); compound 1.0 µM): 6.5% | inhibition (NEK2 (human); compound 0.1 µM): -6% | inhibition (NEK2 (human); compound 1.0 µM): -4.9% | inhibition (ABL1 (human); compound 0.1 µM): 8.2% | inhibition (ABL1 (human); compound 1.0 µM): 36.3% | inhibition (IRAK4 (human); compound 0.1 µM): 7% | inhibition (IRAK4 (human); compound 1.0 µM): 16.1% | inhibition (FLT3 (human); compound 0.1 µM): 13.7% | inhibition (FLT3 (human); compound 1.0 µM): 62.9% | inhibition (CHEK2 (human); compound 0.1 µM): -1.5% | inhibition (CHEK2 (human); compound 1.0 µM): 6.9% | inhibition (PASK (human); compound 0.1 µM): -10.1% | inhibition (PASK (human); compound 1.0 µM): 5.9% | inhibition (DYRK4 (human); compound 0.1 µM): 16.9% | inhibition (DYRK4 (human); compound 1.0 µM): 1.3% | inhibition (PRKCD (human); compound 0.1 µM): -0.8% | inhibition (PRKCD (human); compound 1.0 µM): 2.2% | inhibition (PHKG1 (human); compound 0.1 µM): -1.3% | inhibition (PHKG1 (human); compound 1.0 µM): 17.4% | inhibition (RAF1 (human); compound 0.1 µM): -6.5% | inhibition (RAF1 (human); compound 1.0 µM): -0.8% | inhibition (PIM3 (human); compound 0.1 µM): 4% | inhibition (PIM3 (human); compound 1.0 µM): 0.2%
